The text below walks through data of patent EP2649091B1, “IMMUNE RESTRICTED PEPTIDES WITH INCREASED EFFICACY” (Stichting Het Nederlands Kanker Instituut, priority 2010, dated 2012).

In assay [1] the test system is CD8+ T cells with SVYDFFVWL (Melanoma, TRP-2, residues 180-188) specific T cell receptor. The assay is described as follows: T cell activation time course assay, IFNγ production by FACS, TRP-2 epitope. The note with it: 48H, peptide 50 picomolar. The assay is classed as cell-based. Here is the method: FACS was employed to obtain results.
Also for this epitope, an IFNγ expression time-course experiment was performed. The two distinguishing time points 24H and 48H were taken along at peptide concentrations of 5·10^3 pM, 50 pM and 0.5 pM.
(In general: Flow cytometry measures light scatter and fluorescence of single cells or particles in a stream.)

In assay [2] the target is HLA-A0201 (Homo sapiens, UniProt P04439, D140Y/D185E/D98H/E176V/E277Q/G131W/G231S/I119V/I121R/I166T/I218V/L300P/L318F/N151K/N90K/P208A/P217A/Q86G/Q94H/R138H/R169H/T345S). It counts as binding.
Assay [3] concerns CD8+ T cells from Influenza A positive donors sorted using tetramers containing HLA A2.1::[…]. The assay is classed as cell-based.
The test system is the same in assay [4]. The assay is classed as cell-based. This is another data set of the same source.
The test system of assay [5] is HLA-A2::Mart-1(26-35) reactive T cells stimulated by T2 cells. The assay is described as follows: T cell activation time course assay, IFNγ production (FACS), Mart-1 epitope. The assay is classed as cell-based. To be noted: for % CD8+ T cells producing IFN-γ 0H / Geometric mean IFN-γ in arbitrary fluorescence units 0H: time point 0H (basal); for % CD8+ T cells producing IFN-γ 2H / Geometric mean IFN-γ in arbitrary fluorescence units 2H: time point 2H; for % CD8+ T cells producing IFN-γ 4H / Geometric mean IFN-γ in arbitrary fluorescence units 4H: time point 4H; for % CD8+ T cells producing IFN-γ 24H / Geometric mean IFN-γ in arbitrary fluorescence units 24H: time point 24H; for % CD8+ T cells producing IFN-γ 24H / Geometric mean IFN-γ in arbitrary fluorescence units 24H / % CD8+ T cells producing IFN-γ 48H / Geometric mean IFN-γ in arbitrary fluorescence units 48H: free peptide washed away; for % CD8+ T cells producing IFN-γ 48H / Geometric mean IFN-γ in arbitrary fluorescence units 48H: time point 48H.

“And” between values parts separate entries of the source, which are not always exact repeats. Equal values may be shown once. Where no end group is shown, it is not given here. BUTALA = not defined here; am‑phg = not defined here; PHG = not defined here

In the case of [CSME][2-AOC]YDFFVWL, in assay [1], the “% CD8+ T cells producing IFN-γ” value is “significantly above background level”.
For “[PHG][BUTALA]LGFVFTL ({PHG-BUTALA}-LGFVFTL; reading uncertain)”, the “% inhibition at T=4H and T=24H FP 24h” value in assay [2] came to 75%. Also, in assay [3], the “% CD8+ T cells producing IFN-γ % IFN” value is given as 2.5% and the “Geometric mean IFN-γ in arbitrary fluorescence units Geo IFN” value was 249 arbitrary fluorescence units. In assay [4], the “% Positive TCR recognition % TCR” value came out at 3.16% and the “Geometric mean IFN in arbitrary fluorescence units Geo TCR” value was 464 arbitrary fluorescence units.
As for [am-phg][CpALA]LGFV[4-FPHE]TL, in assay [2], the “% inhibition at T=4H and T=24H FP 4h” value is reported as 96%; the “% inhibition at T=4H and T=24H FP 24h” value is given as 96%; the “IC50 Ratio” value came out at 5. Besides, in assay [3], the “% CD8+ T cells producing IFN-γ % IFN” value came out at 2.8% and the “Geometric mean IFN-γ in arbitrary fluorescence units Geo IFN” value was 243 arbitrary fluorescence units. In addition, in assay [4], the “% Positive TCR recognition % TCR” value is 3.26% and the “Geometric mean IFN in arbitrary fluorescence units Geo TCR” value is reported as 208 arbitrary fluorescence units.
Regarding [am-phg][2-AOC]AGIGILT[PRG], in assay [2], the “% inhibition at T=4H and T=24H FP 4h” value is recorded as 80%; the “% inhibition at T=4H and T=24H FP 24h” value is 77%; the “IC50 Ratio” value is 24.3 and 24. Moreover, in assay [5] (peptide 0.5 pM), the “% CD8+ T cells producing IFN-γ 0H” value turned out to be 0%, the “Geometric mean IFN-γ in arbitrary fluorescence units 0H” value is 104 arbitrary fluorescence units, the “% CD8+ T cells producing IFN-γ 2H” value stood at 26% and the “Geometric mean IFN-γ in arbitrary fluorescence units 2H” value was 207 arbitrary fluorescence units. For the same substance, in assay [5] (peptide 0.5 pM), the “% CD8+ T cells producing IFN-γ 4H” value stood at 30%, the “Geometric mean IFN-γ in arbitrary fluorescence units 4H” value is listed as 378 arbitrary fluorescence units, the “% CD8+ T cells producing IFN-γ 24H” value came out at 1% and the “Geometric mean IFN-γ in arbitrary fluorescence units 24H” value is reported as 116 arbitrary fluorescence units. Further, in assay [5] (peptide 0.5 pM), the “% CD8+ T cells producing IFN-γ 48H” value was found to be 0% and the “Geometric mean IFN-γ in arbitrary fluorescence units 48H” value is listed as 88 arbitrary fluorescence units. In assay [5] (peptide 50 pM), the “% CD8+ T cells producing IFN-γ 0H” value worked out at 0%, the “Geometric mean IFN-γ in arbitrary fluorescence units 0H” value was 109 arbitrary fluorescence units, the “% CD8+ T cells producing IFN-γ 2H” value came to 27% and the “Geometric mean IFN-γ in arbitrary fluorescence units 2H” value is given as 258 arbitrary fluorescence units. In assay [5] (peptide 50 pM), the “% CD8+ T cells producing IFN-γ 4H” value worked out at 30%, the “Geometric mean IFN-γ in arbitrary fluorescence units 4H” value was 592 arbitrary fluorescence units, the “% CD8+ T cells producing IFN-γ 24H” value is reported as 16% and the “Geometric mean IFN-γ in arbitrary fluorescence units 24H” value is on record as 187 arbitrary fluorescence units. Besides, in assay [5] (peptide 50 pM), the “% CD8+ T cells producing IFN-γ 48H” value came out at 1% and the “Geometric mean IFN-γ in arbitrary fluorescence units 48H” value is listed as 86 arbitrary fluorescence units.
On to [am-phg][BUTALA]LGFVFTL, for which, in assay [2], the “% inhibition at T=4H and T=24H FP 24h” value is recorded as 96%; the “IC50 Ratio” value is reported as 3. For the same substance, in assay [3], the “% CD8+ T cells producing IFN-γ % IFN” value is on record as 2.8% and the “Geometric mean IFN-γ in arbitrary fluorescence units Geo IFN” value is reported as 205 arbitrary fluorescence units. In assay [4], the “% Positive TCR recognition % TCR” value came out at 3.32% and the “Geometric mean IFN in arbitrary fluorescence units Geo TCR” value is 155 arbitrary fluorescence units.
Regarding [PHG][NLE]LGFVFTL, in assay [2], the “% inhibition at T=4H and T=24H FP 4h” value is recorded as 77%; the “% inhibition at T=4H and T=24H FP 24h” value came out at 77%; the “IC50 Ratio” value is listed as 4. Besides, in assay [3], the “% CD8+ T cells producing IFN-γ % IFN” value stood at 2.7% and the “Geometric mean IFN-γ in arbitrary fluorescence units Geo IFN” value is listed as 238 arbitrary fluorescence units. For the same substance, in assay [4], the “% Positive TCR recognition % TCR” value amounted to 3.58% and the “Geometric mean IFN in arbitrary fluorescence units Geo TCR” value is listed as 328 arbitrary fluorescence units.
Consider [am-phg][NLE]LGFV[4-FPHE]TL, for which, in assay [2], the “% inhibition at T=4H and T=24H FP 4h” value was determined as 82%; the “% inhibition at T=4H and T=24H FP 24h” value is 83%; the “IC50 Ratio” value is given as 3. Moreover, in assay [3], the “% CD8+ T cells producing IFN-γ % IFN” value turned out to be 3.0% and the “Geometric mean IFN-γ in arbitrary fluorescence units Geo IFN” value is listed as 221 arbitrary fluorescence units. In assay [4], the “% Positive TCR recognition % TCR” value came to 3.40% and the “Geometric mean IFN in arbitrary fluorescence units Geo TCR” value is reported as 302 arbitrary fluorescence units.
For [PHG]I[NLE]GFVFTL, in assay [2], the “% inhibition at T=4H and T=24H FP 4h” value was 86%; the “% inhibition at T=4H and T=24H FP 24h” value came to 84%; the “IC50 Ratio” value amounted to 3. Moreover, in assay [3], the “% CD8+ T cells producing IFN-γ % IFN” value turned out to be 2.9% and the “Geometric mean IFN-γ in arbitrary fluorescence units Geo IFN” value was 270 arbitrary fluorescence units. Besides, in assay [4], the “% Positive TCR recognition % TCR” value is given as 3.26% and the “Geometric mean IFN in arbitrary fluorescence units Geo TCR” value is on record as 235 arbitrary fluorescence units.
For “[am-phg][NVA]YDFFVWL (N-terminal am-phg and NVA)”, the “% CD8+ T cells producing IFN-γ” value in assay [1] is “significantly above background level”.
As for “[am-phg][2-AOC]YDFFVWL ({am‑phg-2‑AOC}-YDFFVWL; reading uncertain; also: printed as [am-phg][2-AOC]YDFFVWL)”, the “% CD8+ T cells producing IFN-γ” value in assay [1] is “significantly above background level”.
For the substance [am-phg]ILGFV[4-FPHE]TL, in assay [2], the “% inhibition at T=4H and T=24H FP 4h” value was found to be 92%; the “% inhibition at T=4H and T=24H FP 24h” value amounted to 93%; the “IC50 Ratio” value was determined as 6. Besides, in assay [3], the “% CD8+ T cells producing IFN-γ % IFN” value was found to be 2.2% and the “Geometric mean IFN-γ in arbitrary fluorescence units Geo IFN” value was 208 arbitrary fluorescence units. In assay [4], the “% Positive TCR recognition % TCR” value is 3.27% and the “Geometric mean IFN in arbitrary fluorescence units Geo TCR” value is recorded as 197 arbitrary fluorescence units.
In the case of [am-phg][NVA]AGIGILT[ALG], in assay [2], the “% inhibition at T=4H and T=24H FP 4h” value was 58%; the “% inhibition at T=4H and T=24H FP 24h” value stood at 63%; the “IC50 Ratio” value is 2.5 and 2. Besides, in assay [5] (peptide 0.5 pM), the “% CD8+ T cells producing IFN-γ 0H” value is given as 0%, the “Geometric mean IFN-γ in arbitrary fluorescence units 0H” value is recorded as 112 arbitrary fluorescence units, the “% CD8+ T cells producing IFN-γ 2H” value came to 26% and the “Geometric mean IFN-γ in arbitrary fluorescence units 2H” value is given as 221 arbitrary fluorescence units. In assay [5] (peptide 0.5 pM), the “% CD8+ T cells producing IFN-γ 4H” value was 29%, the “Geometric mean IFN-γ in arbitrary fluorescence units 4H” value was 350 arbitrary fluorescence units, the “% CD8+ T cells producing IFN-γ 24H” value came to 17% and the “Geometric mean IFN-γ in arbitrary fluorescence units 24H” value is listed as 163 arbitrary fluorescence units. Further, in assay [5] (peptide 0.5 pM), the “% CD8+ T cells producing IFN-γ 48H” value was 5% and the “Geometric mean IFN-γ in arbitrary fluorescence units 48H” value was 111 arbitrary fluorescence units. Further, in assay [5] (peptide 50 pM), the “% CD8+ T cells producing IFN-γ 0H” value was found to be 0%, the “Geometric mean IFN-γ in arbitrary fluorescence units 0H” value is given as 109 arbitrary fluorescence units, the “% CD8+ T cells producing IFN-γ 2H” value amounted to 28% and the “Geometric mean IFN-γ in arbitrary fluorescence units 2H” value is on record as 247 arbitrary fluorescence units. Besides, in assay [5] (peptide 50 pM), the “% CD8+ T cells producing IFN-γ 4H” value is given as 33%, the “Geometric mean IFN-γ in arbitrary fluorescence units 4H” value is listed as 715 arbitrary fluorescence units, the “% CD8+ T cells producing IFN-γ 24H” value is 29% and the “Geometric mean IFN-γ in arbitrary fluorescence units 24H” value is on record as 400 arbitrary fluorescence units. In assay [5] (peptide 50 pM), the “% CD8+ T cells producing IFN-γ 48H” value turned out to be 20% and the “Geometric mean IFN-γ in arbitrary fluorescence units 48H” value is listed as 280 arbitrary fluorescence units.
Turning to [am-phg][CpALA]LGFVFTL, in assay [2], the “% inhibition at T=4H and T=24H FP 24h” value was 91%; the “IC50 Ratio” value is 2. In assay [3], the “% CD8+ T cells producing IFN-γ % IFN” value was found to be 2.2% and the “Geometric mean IFN-γ in arbitrary fluorescence units Geo IFN” value is recorded as 259 arbitrary fluorescence units. In addition, in assay [4], the “% Positive TCR recognition % TCR” value came out at 3.17% and the “Geometric mean IFN in arbitrary fluorescence units Geo TCR” value was 150 arbitrary fluorescence units.
Turning to [am-phg][BUTALA]LGFV[4-FPHE]TL, in assay [2], the “% inhibition at T=4H and T=24H FP 4h” value stood at 83%; the “% inhibition at T=4H and T=24H FP 24h” value was 84%; the “IC50 Ratio” value is 3. Moreover, in assay [3], the “% CD8+ T cells producing IFN-γ % IFN” value is 2.6% and the “Geometric mean IFN-γ in arbitrary fluorescence units Geo IFN” value is listed as 266 arbitrary fluorescence units. Further, in assay [4], the “% Positive TCR recognition % TCR” value is recorded as 3.20% and the “Geometric mean IFN in arbitrary fluorescence units Geo TCR” value is 217 arbitrary fluorescence units.
On to [am-phg][NVA]LGFV[4-FPHE]TL, for which, in assay [2], the “% inhibition at T=4H and T=24H FP 24h” value is given as 97%; the “IC50 Ratio” value was found to be 2. For the same substance, in assay [3], the “% CD8+ T cells producing IFN-γ % IFN” value stood at 3.4% and the “Geometric mean IFN-γ in arbitrary fluorescence units Geo IFN” value was 242 arbitrary fluorescence units. Besides, in assay [4], the “% Positive TCR recognition % TCR” value is listed as 3.54% and the “Geometric mean IFN in arbitrary fluorescence units Geo TCR” value is 143 arbitrary fluorescence units.

What is called % inhibition is the drop in the measured response relative to a control, in per cent. Higher therefore signals a response far below the control.
